# In ChEMBL document CHEMBL1135134, “Novel phthalimide derivatives, designed as leukotriene D(4) receptor antagonists” (Bioorg Med Chem Lett, 2002):
# Key:
# Cavia porcellus [1] = species: Cavia porcellus; assay: Inhibitory contractile effect of compound in guinea-pig tracheal strips induced by LTD4 (100 nM) (% contraction, obtained in the vehicle presence 100.0%); format: functional, Trachea
# Cavia porcellus [2] = species: Cavia porcellus; assay: Inhibitory contractile effect of compound in guinea-pig tracheal strips induced by LTD4 (100 nM) (% inhibition obtained by comparison with control group); format: functional, Trachea
# Cavia porcellus [3] = species: Cavia porcellus; assay: 50% inhibitory concentration on the LTD4 (100 nM) induced contraction of guinea-pig tracheal strip bioassay; format: functional; settings: Trachea
# Cavia porcellus [4] = species: Cavia porcellus; assay: Maximum effect on the LTD4 (100 nM) induced contraction of guinea-pig tracheal strips bioassay; format: functional; settings: Trachea
IC50 (Cavia porcellus [3]) [µM],SMILES,Contraction (Cavia porcellus [1]) [%],Inhibition (Cavia porcellus [2]) [%],Emax (Cavia porcellus [4]) [%]
,CC(Oc1ccc(CCN2C(=O)c3ccccc3C2=O)cc1)C(=O)O (configuration not stated),91.4,8.6,
,O=C(O)COc1ccc(CCN2C(=O)c3ccccc3C2=O)cc1,101.5,-1.5,
31.2,O=C1c2ccccc2C(=O)N1CCc1ccc(OCCCc2nn[nH]n2)cc1,52.4,47.6,100
,O=C(O)CCCOc1ccc(CCN2C(=O)c3ccccc3C2=O)cc1,80.3,19.7,
,O=C(O)CCCCOc1ccc(CCN2C(=O)c3ccccc3C2=O)cc1,97.6,2.4,
,O=C(O)c1ccc(COc2ccc(CCN3C(=O)c4ccccc4C3=O)cc2)cc1,93.7,6.3,
,O=C(O)CCCC(=O)Oc1ccc(CCN2C(=O)c3ccccc3C2=O)cc1,73.9,26.1,
0.00103,COc1cc(C(=O)NS(=O)(=O)c2ccccc2C)ccc1Cc1cn(C)c2ccc(NC(=O)OC3CCCC3)cc12 [ZAFIRLUKAST],,,
